Reference: patent US12104170B2, “Methods for deriving dopaminergic neurons from pluripotent stem cells” (MINERVA BIOTECHNOLOGIES CORPORATION, priority 2020, dated 2024)

B1: WNT3A: beta-catenin agonist added to pluripotent stem cell media at 100 ng/mL for 48 hours before differentiation (protein, UniProt P56704 19-352, looked up)
Protein Wnt-3a: SYPIWWSLAVGPQYSSLGSQPILCASIPGLVPKQLRFCRNYVEIMPSVAEGIKIGIQECQHQFRGRRWNCTTVHDSLAIFGPVLDKATRESAFVHAIASAGVAFAVTRSCAEGTAAICGCSSRHQGSPGKGWKWGGCSEDIEFGGMVSREFADARENRPDARSAMNRHNNEAGRQAIASHMHLKCKCHGLSGSCEVKTCWWSQPDFRAIGDFLKDKYDSASEMVVEKHRESRGWVETLRPRYTYFKVPTERDLVYYEASPNFCEPNPETGSFGTRDRTCNVSSHGIDGCDLLCCGRGHNARAERRREKCRCVFHWCCYVSCQECTRVYDVHTCK

Assays:
[1] = test system: human iPS cells differentiating to dopaminergic neurons; assay: Addition of forms of vitamin B6 or vitamin A around Day 20 of differentiation (morphology, markers, neural projections); assay type: cell-based; conditions: for empirically determined optimal concentration: added around Day 20 and onward, final concentration; for effect of adding vitamin B6 form on dopaminergic neurons: added starting around Day 21, retinol, retinyl acetate and vitamin C in all conditions (FIG. 16)
Experimental: In this next set of experiments, we followed Protocol A, except that around Day 20, the neural base media will be exchanged for one that contains approximately 1.2 uM retinol and 0.17 uM retinyl acetate and various other forms of vitamin B6 were then added (FIG. 1, Example 2). Resultant cells were analyzed for cell morphology, yield of TH and DAT positive cells relative to Tuj1 positivity and the number and length of neural projections as an indicator of engraftment potential.
We assessed the effects of various forms of vitamin B6 on differentiation of dopaminergic neurons from human iPS cells. […] The differentiation protocol called Protocol A (FIG. 1) was followed until Day 20. From Day 21 onward, to the basal media was added vitamin A in the form of retinol at 1.2 uM and retinyl acetate at 0.17 uM and vitamin C as ascorbic acid-2-phosphate at a final concentration of about 200 nM. It is important to note that the neural basal media that was used in all conditions contained 10 uM pyridoxal, so pyridoxal at this low concentration was present from the onset of differentiation.
In addition to the vitamins A and C which were constant throughout all conditions, various forms of vitamin B6 were added: 16 uM pyridoxine (FIG. 12A-12K), or 11 uM pyridoxal (FIG. 13A-13K), or 20 uM pyridoxal-5′-phosphate also known as PLP (FIG. 14A-14K), or all of the vitamin Bs. To assess the quality of the resultant dopaminergic neurons we examined: a) the percentage of the GIRK2 positive cells that were also positive for TH, Tyrosine hydroxylase which is an enzyme that mediates the conversion of L-tyrosine to L-3,4-dihydroxyphenylalanine, which is the rate limiting step in dopamine synthesis; this percentage should be high as an indicator of yield of the desired cell type -dopaminergic neurons; b) The percentage of TUJ positive neurons that were also TH positive; TUJ is a pleiotropic marker of neurons; only those that are TH positive are truly dopaminergic neurons; c) the percentage of the TUJ positive cells that are also positive for DAT, the dopamine transporter protein; d) the shape of the cell body should have the characteristic elongated triangular shape of neurons; and e) the length and number of neural projections associated with being TH and DAT positive. For engraftment, the length and number of neural projections is considered to be the most important factor.

[2] = test system: human iPS cells differentiated to dopaminergic neurons; assay: Immunofluorescent staining for GIRK2, TH, DAT, Tuj1 and morphology (yield and purity of dopaminergic neurons); assay type: cell-based; conditions: iPSCs grown in E8 plus WNT3A for 48 hours before initiating differentiation
Experimental: On Day 24, immunofluorescent staining was performed to detect the presence of molecular markers of dopaminergic neuron progenitors generated using Protocol A (FIG. 2A-FIG. 2L) or Protocol C.2 (FIG. 3A-FIG. 3L). GIRK2 (G-protein-regulated inward-rectifier potassium channel 2) is expressed in dopaminergic neurons while Tuj1 (neuron-specific class Ill B-tubulin) is a pan-neural marker. TH (tyrosine hydroxylase) is considered a gold standard in the identification of dopaminergic neurons because it is an enzyme that catalyzes the conversion of L-tyrosine to L-3,4-dihydroxyphenylalanine, which is the rate limiting step in dopamine synthesis. DAT (dopamine active transporter) is equally important as it is the transmembrane protein that pumps dopamine from the synapse back into the cytosol. Both differentiation protocols produced cells that were positive for all appropriate molecular markers. […]
In addition to the vitamins A and C which were constant throughout all conditions, various forms of vitamin B6 were added: 16 uM pyridoxine (FIG. 12A-12K), or 11 uM pyridoxal (FIG. 13A-13K), or 20 uM pyridoxal-5′-phosphate also known as PLP (FIG. 14A-14K), or all of the vitamin Bs. […] FIG. 17 is a graph of the amount of dopamine and its metabolites, measured by HPLC, present in the conditioned media from only 200,000 cells taken at Day 30, Day 40, Day 50 or Day 60. […]

Molecule | empirically determined optimal concentration [1] [µM] | effect of adding vitamin B6 form on dopaminergic neurons [1] | survival of differentiating cells [2]
Cc1ncc(CO)c(C=O)c1O [pyridoxal] | 5 to 20 | greatly increase dopamine yield and engraftment potential | 
Cc1ncc(CO)c(CO)c1O [pyridoxine] | 10 to 20 |  | 
Cc1ncc(COP(=O)(O)O)c(C=O)c1O [pyridoxal-5′-phosphate] | 10 to 40 | greatly increase dopamine yield and engraftment potential | 
B1 |  |  | increased survival at Day 60
